ChEMBL document CHEMBL5346930, “Discovery of novel N-benzylarylamide-dithiocarbamate based derivatives as dual inhibitors of tubulin polymerization and LSD1 that inhibit gastric cancers” (Eur J Med Chem, 2023)
pIC50: −log10 of the molar value. Active and inactive are the calls of the source. No cut-off for these calls is given here.

What was measured:
[1] = tested on: SGC-7901; test: Antiproliferative activity against human SGC-7901 cells assessed as inhibition of cell growth incubated for 48 hrs by MTT assay; assay type: functional, cell-based; conditions: SGC-7901, 48 h
[2] = tested on: PC-3; test: Antiproliferative activity against human PC-3 cells assessed as inhibition of cell growth incubated for 48 hrs by MTT assay; assay type: functional, cell-based; conditions: PC-3, 48 h
[3] = tested on: DU-145; test: Antiproliferative activity against human DU-145 cells assessed as inhibition of cell growth incubated for 48 hrs by MTT assay; assay type: functional, cell-based; conditions: DU-145, 48 h
[4] = tested on: TE-1; test: Antiproliferative activity against human TE-1 cells assessed as inhibition of cell growth incubated for 48 hrs by MTT assay; assay type: functional, cell-based; conditions: TE-1, 48 h
[5] = tested on: Huh-7; test: Antiproliferative activity against human Huh-7 cells assessed as inhibition of cell growth incubated for 48 hrs by MTT assay; assay type: functional, cell-based; conditions: Huh-7, 48 h
[6] = biological target: T1, Tubulin beta (Homo sapiens) (UniProt P68371+Q9H4B7+Q13509+P04350+Q3ZCM7+P07437+Q13885+Q9BVA1+Q9BUF5+A6NNZ2); test: Binding affinity to colchicine binding site of beta-tubulin in human MGC-803 cells assessed as inhibition of beta-tubulin alkylation by measuring disappearance of beta-tubulin-EBI adduct band pretreated for 2 hrs followed by EBI addition and measured after 2 hrs by Western blot analysis; assay type: cell-based; conditions: dose 0-10 µM, time 4.0 hrs
[7] = biological target: T1, Tubulin beta (Homo sapiens); test: Binding affinity to colchicine binding site of beta-tubulin in human SGC-7901 cells assessed as inhibition of beta-tubulin alkylation by measuring disappearance of beta-tubulin-EBI adduct band pretreated for 2 hrs followed by EBI addition and measured after 2 hrs by Western blot analysis; assay type: cell-based; conditions: dose 0-10 µM, time 4.0 hrs
[8] = biological target: Tubulin (Homo sapiens) (UniProt P68371+Q9H4B7+P0DPH7+P68366+Q13509+Q71U36+P04350+Q3ZCM7+P07437+P68363+Q9BQE3+Q6PEY2+Q13885+Q9BVA1+Q9BUF5); test: Inhibition of tubulin polymerization in human MGC-803 cells assessed as destruction of microtubule network incubated for 48 hrs by immunofluorescence staining based fluorescence microscopic analysis; assay type: cell-based; conditions: dose 0-24 nmol/L
[9] = biological target: T2, Lysine-specific histone demethylase 1A (Homo sapiens, UniProt O60341); test: Inhibition of LSD1 in human MGC-803 cells assessed as increase in H3K4me2 expression level at 0 to 24 nmol/L incubated for 48 hrs by Western blot analysis; assay type: cell-based; conditions: dose 0-24 nmol/L
[10] = biological target: T2, Lysine-specific histone demethylase 1A; test: Inhibition of LSD1 in human SGC-7901 cells assessed as increase in H3K4me1 expression level at 0 to 30 nmol/L incubated for 48 hrs by Western blot analysis; assay type: cell-based; conditions: dose 0-30 nmol/L
[11] = tested on: SGC-7901; test: Induction of cell cycle arrest in human SGC-7901 cells assessed as accumulation of cells at G2/M phase incubated for 48 hrs; assay type: functional, cell-based; conditions: dose 0-30 nmol/L
[12] = tested on: SGC-7901; test: Induction of cell cycle arrest in human SGC-7901 cells assessed as downregulation of CDC2 protein expression incubated for 48 hrs by Western blot analysis; assay type: functional, cell-based; conditions: dose 0-30 nmol/L
[13] = tested on: MGC-803; test: Induction of cell cycle arrest in human MGC-803 cells assessed as reduction in CDC2 phosphorylation at Thr161 residue at 0 to 24 nmol/L incubated for 48 hrs by Western blot analysis; assay type: functional, cell-based; conditions: dose 0-24 nmol/L
[14] = tested on: SGC-7901; test: Induction of cell cycle arrest in human SGC-7901 cells assessed as reduction in CDC2 phosphorylation at Thr161 residue at 0 to 30 nmol/L incubated for 48 hrs by Western blot analysis; assay type: functional, cell-based; conditions: dose 0-30 nmol/L
[15] = tested on: SGC-7901; test: Induction of morphological changes in human SGC-7901 cells assessed as appearance of oblate and bright cells at 0 to 30 nmol/L incubated for 48 hrs by bright field microscopic analysis; assay type: functional, cell-based; conditions: dose 0-30 nmol/L
[16] = tested on: SGC-7901; test: Induction of morphological changes in human SGC-7901 cells assessed as reduction in cell density at 0 to 30 nmol/L incubated for 48 hrs by bright field microscopic analysis; assay type: functional, cell-based; conditions: dose 0-30 nmol/L
[17] = tested on: MGC-803; test: Induction of morphological changes in human MGC-803 cells assessed as increase in proportion of dead cells at 0 to 24 nmol/L incubated for 48 hrs by calcein-AM/PI staining based analysis; assay type: functional, cell-based; conditions: dose 0-24 nmol/L
[18] = tested on: SGC-7901; test: Induction of morphological changes in human SGC-7901 cells assessed as increase in proportion of dead cells at 0 to 30 nmol/L incubated for 48 hrs by calcein-AM/PI staining based analysis; assay type: functional, cell-based; conditions: dose 0-30 nmol/L
[19] = tested on: MGC-803; test: Induction of morphological changes in human MGC-803 cells assessed as appearance of bright and shrunken nucleus at 0 to 24 nmol/L incubated for 48 hrs by DAPI staining based analysis; assay type: functional, cell-based; conditions: dose 0-24 nmol/L
[20] = tested on: SGC-7901; test: Induction of morphological changes in human SGC-7901 cells assessed as appearance of bright and shrunken nucleus at 0 to 30 nmol/L incubated for 48 hrs by DAPI staining based analysis; assay type: functional, cell-based; conditions: dose 0-30 nmol/L
[21] = tested on: SGC-7901; test: Induction of apoptosis in human SGC-7901 cells assessed as increase in total apoptotic cells incubated for 48 hrs by Annexin-FITC/PI staining based flow cytometry analysis; assay type: functional, cell-based; conditions: dose 0-30 nmol/L
[22] = tested on: SGC-7901; test: Induction of DNA damage in human SGC-7901 cells assessed as DNA fragmentation by measuring increase in comet tails by fluorescence microscope based comet assay; assay type: functional, cell-based; conditions: dose 0-30 nmol/L
[23] = tested on: SGC-7901; test: Induction of apoptosis in human SGC-7901 cells assessed as activation of caspase-7 at 0 to 30 nmol/L incubated for 48 hrs by Western blot analysis; assay type: functional, cell-based; conditions: dose 0-30 nmol/L
[24] = tested on: MGC-803; test: Induction of apoptosis in human MGC-803 cells assessed as increase in cleaved caspase-7 level at 0 to 24 nmol/L incubated for 48 hrs by Western blot analysis; assay type: functional, cell-based; conditions: dose 0-24 nmol/L
[25] = tested on: MGC-803; test: Induction of apoptosis in human MGC-803 cells assessed as increase in cleaved PARP level at 0 to 24 nmol/L incubated for 48 hrs by Western blot analysis; assay type: functional, cell-based; conditions: dose 0-24 nmol/L
[26] = tested on: SGC-7901; test: Induction of apoptosis in human SGC-7901 cells assessed as increase in cleaved PARP level at 0 to 30 nmol/L incubated for 48 hrs by Western blot analysis; assay type: functional, cell-based; conditions: dose 0-30 nmol/L
[27] = tested on: MGC-803; test: Inhibition of cell migration in human MGC-803 cells assessed as reduction in rate of wound healing at 4 nmol/L measured after 0 to 48 hrs; assay type: functional, cell-based; conditions: time 0-48 hrs
[28] = tested on: MGC-803; test: Inhibition of cell migration in human MGC-803 cells assessed as reduction in number of cells crossing membrane at 4 nmol/L measured after 48 hrs by transwell assay; assay type: functional, cell-based
[29] = tested on: SGC-7901; test: Inhibition of cell migration in human SGC-7901 cells assessed as reduction in number of cells crossing membrane at 4 nmol/L measured after 48 hrs by transwell assay; assay type: functional, cell-based
[30] = tested on: MGC-803; test: Antitumor activity against human MGC-803 cells xenografted in BALB/c nude mouse assessed as reduction in tumor weight at 25 mg/kg/day, ip administered every day for 21 days; assay type: functional, organism-based; conditions: time 21.0 day
[31] = Hepatotoxicity in BALB/c nude mouse xenografted with human MGC-803 cells assessed as effect on AST level at 25 mg/kg/day, ip administered every day for 21 days; assay type: toxicity, organism-based; conditions: in vivo, 504 h, time 21 day
[32] = Nephrotoxicity in BALB/c nude mouse xenografted with human MGC-803 cells assessed as effect on BUN level at 25 mg/kg/day, ip administered every day for 21 days; assay type: toxicity, organism-based; conditions: in vivo, 504 h, time 21 day
[33] = Nephrotoxicity in BALB/c nude mouse xenografted with human MGC-803 cells assessed as effect on creatinine level at 25 mg/kg/day, ip administered every day for 21 days; assay type: toxicity, organism-based; conditions: in vivo, 504 h, time 21 day

COc1ccc(CN(C(=O)CSC(=S)N2CCN(c3ccc(N)cc3)CC2)c2cc(OC)c(OC)c(OC)c2)cc1O
pIC50 [1]: 7.71 | pIC50 [2]: 7.35 | pIC50 [3]: 7.30 | pIC50 [4]: 7.50 | pIC50 [5]: 7.32 | Activity [6]: Dose-Dependent Effect | Activity [7]: Dose-Dependent Effect | inhibition [8]: Dose-Dependent Effect | inhibition [9]: Active | inhibition [10]: Active | Activity [11]: Dose-Dependent Effect | Activity [12]: Dose-Dependent Effect | Activity [13]: Active | Activity [14]: Active | Activity [15]: Active | Activity [16]: Active | Activity [17]: Active | Activity [18]: Active | Activity [19]: Active | Activity [20]: Active | Activity [21]: Dose-Dependent Effect | Activity [22]: Dose-Dependent Effect | Activity [23]: Active | Activity [24]: Active | Activity [25]: Active | Activity [26]: Active | inhibition [27]: Active | inhibition [28]: Active | inhibition [29]: Active | Activity [30]: Active | Activity [31]: Non-Toxic | Activity [32]: Non-Toxic | Activity [33]: Non-Toxic
